The values below come from patent US7557113B2, “Substituted pyrrolo[3,2-d]pyrimidine derivatives” (Teijin Pharma Limited, priority 2003, dated 2009).

Bounds are passed on as bounds.

The target of one assay is recombinant human GSK-3β (Homo sapiens, UniProt P49841). As to the kind of experiment: Determination of Inhibition of GSK-3 Activity (phospho-glycogen synthase peptide-2 phosphorylation, [γ-33P]ATP, scintillation counting). The format is biochemical. The following applies: group stated as 20 nM<IC50<100 nM; read-out: GSK-3 inhibitor activity values (IC50 values). How it is done: The reaction was initiated by adding 25 μL of phospho-glycogen synthase peptide-2 substrate solution [containing 6 μM phospho-glycogen synthase peptide-2, 20 μM ATP, 16 mM MOPS buffer (pH 7.0), 0.2 mM EDTA, 20 mM magnesium acetate, 0.1 μ Ci[γ-^33P]ATP (relative activity: approximately 110 TBq/mmol)] to 5 μL of each test compound using 5% dimethylsulfoxide as a solvent, and further adding 20 μL of GSK-3β enzyme solution [containing 10 mU recombinant human GSK-3β, 20 mM MOPS buffer (pH 7.0), 1 mM EDTA, 0.1% polyoxyethylene lauryl ether(23 Lauryl Ether; Brij 35), 5% glycerol, and 0.1% β-mercaptoethanol. After 20 minutes at room temperature, the reaction was terminated by the addition of the equivalent amount of 200 mM phosphoric acid solution. 90 μL of the reaction product was spotted onto a multiscreen PH plate (manufactured by Millipore) and washed with 100 mM phosphoric acid solution. The plate was dried, and 30 μL of MicroScint-O (manufactured by Packard BioScience) was added thereto. To evaluate inhibitory activity, cpm was counted using a scintillation counter. Here, Phospho GS Peptide 2 is an amino acid peptide having the following sequence: […]P)-Glu-Asp-Glu-Glu-Glu.
recombinant human GSK-3β, sequence (P49841 whole entry): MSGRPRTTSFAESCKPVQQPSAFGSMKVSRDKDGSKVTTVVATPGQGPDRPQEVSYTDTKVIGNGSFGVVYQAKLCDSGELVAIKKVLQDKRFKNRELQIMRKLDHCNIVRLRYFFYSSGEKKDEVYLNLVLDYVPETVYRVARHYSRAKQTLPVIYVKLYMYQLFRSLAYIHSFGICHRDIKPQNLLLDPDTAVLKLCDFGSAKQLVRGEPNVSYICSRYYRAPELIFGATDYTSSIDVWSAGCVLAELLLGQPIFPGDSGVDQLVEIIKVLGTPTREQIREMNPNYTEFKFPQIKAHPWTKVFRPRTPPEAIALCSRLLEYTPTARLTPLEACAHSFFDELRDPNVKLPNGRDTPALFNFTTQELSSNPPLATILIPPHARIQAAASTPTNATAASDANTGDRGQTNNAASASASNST
On to `CC(=O)NCCn1c(-c2sccc2Cl)c(-c2cccnc2)c2nc[nH]c(=O)c21` [Compound 217, N-{2-[6-(3-chloro(2-thienyl))-4-oxo-7-(3-pyridyl)-3-hydropyrrolo[3,2-d]pyrimidin-5-yl]ethyl}acetamide], for which the IC50 (commonly the concentration that gives 50% inhibition) is 20 to 100 nM.
On to `CC(C)(C)CC(=O)NCCn1c(-c2sccc2Cl)c(-c2cccnc2)c2nc[nH]c(=O)c21` [Compound 626, N-{2-[6-(3-chloro-thiophen-2-yl)-4-oxo-7-pyridin-3-yl-3-hydropyrrolo[3,2-d]pyrimidin-5-yl]ethyl}-t-butylacetylamide], for which the IC50 is 20 to 100 nM.
Turning to `O=C(NCCn1c(-c2sccc2Cl)c(-c2cccnc2)c2nc[nH]c(=O)c21)Nc1ccccc1` [Compound 793, 1-{2-[6-(3-chloro-thiophen-2-yl)-4-oxo-7-pyridin-3-yl-3-hydropyrrolo[3,2-d]pyrimidin-5-yl]ethyl}-3-phenylurea], the IC50 was in the range of 20 to 100 nM.
On the same count and under the same terms, for `Cc1ccc(CNC(=O)CCCn2c(C3CC3)c(-c3cccnc3)c3nc[nH]c(=O)c32)cc1` [Compound 2331, 4-(6-cyclopropyl-4-oxo-7-(3-pyridyl)(3-hydropyrrolo[3,2-d]pyrimidin-5-yl))-N-[(4-methylphenyl)methyl]butanamide] the value was 20 to 100 nM; for `Cc1ccc(CNC(=O)CCCn2c(C3CC3)c(-c3cnn(C)c3)c3nc[nH]c(=O)c32)cc1` [Compound 2332, 4-[6-cyclopropyl-7-(1-methylpyrazol-4-yl)-4-oxo-(3-hydropyrrolo[3,2-d]pyrimidin-5-yl)]-N-[(4-methylphenyl)methyl]butanamide], 20 to 100 nM.

Still in this assay, the particulars now being: group stated as IC50<100 nM; read-out: GSK-3 inhibitor activity values (IC50 values).
With `CC(C)(C)CC(=O)NCCn1c(-c2sccc2Cl)c(-c2cn[nH]c2)c2nc[nH]c(=O)c21` [Compound 629, N-{2-[7-(1H-pyrazol-4-yl)-6-(3-chloro-thiophen-2-yl)-4-oxo-3-hydropyrrolo[3,2-d]pyrimidin-5-yl]ethyl}-t-butylacetylamide], the IC50 was less than 100 nM.
